According to patent US7951549B2, “Methods for the identification of agents that inhibit mesenchymal-like tumor cells or their formation” (OSI Pharmaceuticals, Inc., priority 2008, dated 2011):
Entries after “also recorded” stand apart in the source; their conditions may differ.

Columns and labels:
Assay type in all cases: cell-based, human
[1] = system: H358 cells; test: Induction of EMT in H358 cells by growth factors and cytokines (immunoblot of EMT biomarkers); settings: for induction of EMT in H358 cells: single ligand, 7 days
Protocol: The human line H358 was cultured in the appropriate ATCC recommended supplemented media. Growth factor and cytokine induced EMT was monitored over a 7-14 day period. Growth factors and cytokines were obtained from commercial sources and included TGFβ 10 ng/ml, Endothelin 100 nM, IL-4 5 ng/ml, IL-6 5 ng/ml, IL-8 5 ng/ml, VEGF 10 ng/ml, Stromal derived factor, 100 ng/ml, Epidermal derived factor 10 ng/ml, MMP2, 100 ng/ml, MMP7, 100 ng/ml, MMP9, 100 ng/ml, Collagen-I, 5 μg/cm2, Collagen-IV, 5 μg/cm2, Fibronectin, 1 μg/cm2, Laminin-I, 1 μg/cm2, Vitronectin, 0.1 μg/cm2, Polylysine, 100 mg/mL, HGF, 100 ng/mL, MSP, 100 ng/ml, IGF-1, 50 ng/mL, CSF-1, 100 ng/mL, ET1, 100 nM, SDF-1alpha, 100 ng/ml PGE2, 500 nM, LPA, 10 μM, S1P, 1 μM, TGFbeta1, 2.5 ng/mL, TNFalpha, 25 ng/mL, IL1beta, 2.5 ng/mL, IL6, 2 ng/mL, IL8, 0.5 ng/mL, WNT-1, 5 ng/mL, CTGF, 20 ng/ml, Trance, 50 ng/ml, FGF1, 10 ng/ml, FGF2, 10 ng/ml, BMP4, 100 ng/ml, BMP7, 100 ng/ml, IGF2, 100 ng/ml, Oncostatin M, 100 ng/ml, NRG1, 50 ng/ml, PDGF-AA, 50 ng/ml, PDGF-BB, 30 ng/ml, WISP1, 20 ng/ml, Fulvestrant, 1 μM, LIF, 20 ng/ml, IFN g, 50 ng/ml, HMG-B1, 50 ng/ml, M-CSF, 50 ng/ml, PTHrP, 50 ng/ml, MCP1, 50 ng/ml, IL-1a, 10 ng/ml, IL-33, 50 ng/ml, IL-31, 50 ng/ml, GM-CSF, 25 ng/ml, Angiopoeitin 2, 400 ng/ml, PAR1, 100 μM, PAR2, 100 μM, PAR4, 100 μM, Wnt5a, 200 ng/ml, G-CSF, 50 ng/ml, Amphiregulin, 100 ng/ml, CNTF, 25 ng/mL, Pleiotrophin, 25 ng/ml, Prolactin, 100 ng/ml, TRAIL, 100 ng/ml.
Cell lines were treated as indicated in the text and figure legends. Cell lysates were prepared in RIPA buffer (Sigma, #R0278) containing protease (Sigma #P8340) and phosphatase (Sigma, #P5726) inhibitors. Protein concentration was determined by micro-BCA assay (Pierce, #23227). Protein immunodetection was performed by electrophoretic transfer of SDS-PAGE separated proteins to nitrocellulose, incubation with antibody and chemiluminescent second step detection (PicoWest; Pierce, #34078). The antibodies used were: E-cadherin (sc21791), N-cadherin (#7939), ErbB3 (sc285), GAPDH (#25778) and Zeb1 (#25388), all from Santa Cruz Biotechnology; vimentin (BD550513) and fibronectin (BD610077; both from BD Biosciences); β-actin (Sigma, #A5441).

[2] = system: H358 cells; test: Immunofluorescence and confocal imaging of E-cadherin and vimentin in ligand-treated H358 cells; settings: cells treated for 7 days
Protocol: (§1) Cells were plated on coverslips on experimental day 0, stimulated with ligand on day 1 and refreshed with medium and ligand on day 3-4. On day 7, cells were fixed at room temperature for 10 minutes in 4% paraformaldehyde (EMS #15701)/PBS (Gibco #14190). Cells were blocked in 3% BSA/PBS and incubated with primary antibody (E-cadherin, Santa Cruz #sc21791 and Vimentin, Chemicon #AB5733) diluted in blocking buffer for two hours at room temperature. Cells were washed and incubated in secondary antibody (Invitrogen #A11029 and Chemicon #AP194R) followed by nuclear counterstain TO-PRO3 (Invitrogen #T3605). Coverslips were mounted on slides with Pro-Long Gold anti-fade reagent (Invitrogen P36934). Images were captured on a Leica DMRXE microcope with SP2 scanner using Leica Confocal Software.

[3] = system: H358 cells; test: TGFβ-induced EMT of H358 cells in 3D matrigel culture, with and without inhibitor; settings: 10 μM SB431542, ligand TGFβ
Protocol: 3-Dimensional matrigel culture: Tissue culture wells were coated with a layer of matrigel of 1 mm depth or greater. H358 cells were plated on top of this in 2% matrigel with seeding density of 2,500-5000 cells/cm^2. Once the cell/matrigel layer had solidified, media was added and cultures were allowed to incubate overnight at 37° C. in a CO2 incubator before treatment of cells with ligand with and without addition of 10 μM SB431542 (Sigma-Aldrich, St. Louis, Mo.; product #S4317). Culture media, ligand with and without addition of 10 μM SB431542 was replenished every 3-4 days during the duration of the experiment.
as §1, with “Images were captured on a Leica DMRXE microcope with SP2 scanner using Leica Confocal Software.” left out

[4] = system: H358 cells; test: Ligand-induced EMT in H358 cells with pharmacological inhibitors (Western blot markers, morphology); settings: inhibitor and ligand for 7 days; for EMT in OSM-induced models (markers and morphology): OSM alone or in combination
Protocol: EMD Biosciences #444937), JAK inhibitor 1 (“JAKi”; EMD Biosciences #420099), and LY294002 (PI3K inhibitor (PI3Ki); EMD Biosciences #440202) were used in the concentrations indicated. Cells were treated with inhibitor 30 minutes prior to ligand stimulation. Medium, inhibitor and ligand were refreshed on experimental day 3 to 4. Cell lines were treated as indicated in the text and figure legends. Cell lysates were prepared in RIPA buffer (Sigma, #R0278) containing protease (Sigma #P8340) and phosphatase (Sigma, #P5726) inhibitors. Protein concentration was determined by micro-BCA assay (Pierce, #23227). Protein immunodetection was performed by electrophoretic transfer of SDS-PAGE separated proteins to nitrocellulose, incubation with antibody and chemiluminescent second step detection (PicoWest; Pierce, #34078). The antibodies used were: E-cadherin (sc21791), N-cadherin (#7939), ErbB3 (sc285), GAPDH (#25778) and Zeb1 (#25388), all from Santa Cruz Biotechnology; vimentin (BD550513) and fibronectin (BD610077; both from BD Biosciences); β-actin (Sigma, #A5441).

HGF: hepatocyte growth factor (Peprotech #100-39)
E-cadherin repression or vimentin induction as single agents ([1]; seven day treatment of H358): neither HGF or OSM as single agents produced significant
extent of EMT at the single cell level (E-cadherin and vimentin expression and localization) [2]: partial EMT

TNFα
induction of EMT in H358 cells [1]: able to induce EMT

EGF: epidermal growth factor, protein ligand
induction of EMT in H358 cells [1]: to a lesser extent

NC(=O)c1ccc(-c2nc(-c3ccc4c(c3)OCO4)c(-c3ccccn3)[nH]2)cc1 [SB431542]
epithelial to mesenchymal transition induced by TGFβ (vimentin, E-cadherin) [3]: abrogated; also recorded: inhibited

CC(C)(C)c1nc2c3cc[nH]c(=O)c3c3cc(F)ccc3c2[nH]1 [JAK inhibitor]
EMT in OSM-induced models (markers and morphology) [4]: blocked
EMT in OSM-induced models (markers and morphology) ([4]; listed as JAKi): blocks
downregulation of E-cadherin induced by OSM, TGFβ, HGF+OSM and TGFβ+OSM ([4]; Western blot): blocked
upregulation of vimentin by OSM, HGF+OSM and TGFβ+OSM ([4]; Western blot): attenuated

TGFβ
E-cadherin expression ([1]; seven day treatment of H358): marked decrease
vimentin expression ([1]; seven day treatment of H358): robust increase
E-cadherin expression ([1]; seven day treatment of H358, listed as TGF-beta): very substantial
induction of EMT in H358 cells [1]: most complete EMT
extent of EMT at the single cell level (E-cadherin and vimentin expression and localization) [2]: more complete EMT
